The source of these data is the OPERA property sets (Mansouri et al. 2018).

Consider `O=C(O)Cc1n[nH]oc1=O`, for which the logP (in general, a log measure of how a compound divides between an organic and an aqueous phase) was -1.66.

The compound `O=C(Cc1ccccc1)Nc1ccc(Cl)c(Cl)c1` gave a log partition coefficient (logP) of 4.47.

On to `Nc1nnc(N)[nH]1`, for which the logP was -1.61.

In the case of `Cn1cnc2ccccc2c1=O`, the lipophilicity (logP) was found to be 0.69.

`Cc1c(NCC(C)C)c(=O)n(-c2ccccc2)c(=O)n1C` yielded a logP of 1.48.

Take `O=S1(=O)NC(C2=CCCC2)=Nc2ccccc21`: the logP was found to be 1.69.

On to `CC(=O)OCC1CCC(NC(=O)N(CCCl)N=O)CC1` (stereo unspecified), for which the logP worked out at 2.24.

In turn, `CCOc1cc(Cc2cnc(N)nc2N)cc(OCC)c1` came in with a logP of 2.52.

`O=c1cc(-c2ccccc2)oc2cc(O)ccc12` showed a logP of 3.62.

`O=c1[nH]cc(I)c(=O)[nH]1` registered a logP of 0.04.

`CCCC1CC(C(=O)NC(C(C)Cl)C2OC(SC)C(O)C(O)C2O)N(CC)C1` (stereo unspecified) returned a logP of 2.51.

For the compound `COc1cc(C=O)ccc1OCCOC(=O)c1cccc(Cl)c1`, the logP was determined as 3.67.

Regarding `NC(=O)Nc1cccc(NC(N)=O)c1`, the lipophilicity (logP) amounted to 0.58.

`CCCCCCCCCCCCN.Cl` had a logP of 1.85.

For `NCC(CC(=O)O)c1ccc(Cl)cc1` (stereo unspecified), the logP was -0.96.

Turning to `O=[N+]([O-])c1ccc(OCCn2ccnn2)cc1`, the logP came to 1.19.

In turn, `CC1CCCN(N=O)C1=O` (stereo unspecified) returned a logP of -0.66.

Compound `c1ccc(-c2nnco2)cc1` returned a logP of 1.31.

The compound `c1ccc2c(c1)CNc1ccccc1C2` registered a logP of 2.9.

Turning to `NC1=NS(=O)(=O)c2ccc(Cl)cc2N1`, the logP amounted to 0.91.

With `CCN(CC)Cc1ccc(C(=O)Nc2c(C)cccc2C)cc1`, the logP came out at 3.49.

Compound `Cc1nnc(SCc2ccccc2)s1` showed a logP of 2.35.

Compound `COc1cc(C=O)ccc1OCCOC(=O)c1ccccc1Cl` yielded a logP of 3.21.

`CN(C)N=Nc1cn(C2OC(CO)C(O)C2O)c(=O)[nH]c1=O` (stereo unspecified) gave a logP of -1.82.

Turning to `CCCCOC(=O)c1cccc(C(=O)OCCCC)c1`, the logP is 4.26.

In turn, `C=CCn1c(C)c(N(C)C)c(=O)n(-c2ccccc2)c1=O` displayed a logP of 1.44.

Turning to `CN(CCO)C1=C(N2CC2)C(=O)C(N(C)CCO)=C(N2CC2)C1=O`, the log partition coefficient (logP) was -0.37.

As for `O=C1C=CC(=NCl)C=C1`, the logP amounted to 1.26.

`CCC1(C)CCC(=O)NC1=O` (stereo unspecified) came in with a logP of 0.23.

As for `COc1cccc(CC(C)N)c1OC` (stereo unspecified), the logP amounted to 1.49.

The compound `CN(C(=O)CCC(N)=O)c1ccc(S(=O)(=O)N(C)C)cc1` displayed a logP of -0.56.

In the case of `CC(=O)OC1COC(NC(=O)N(CCl)N=O)C(OC(C)=O)C1OC(C)=O` (stereo unspecified), the logP turned out to be 1.13.

In turn, `COc1cc(C=NO)ccc1OCCO` displayed a logP of 0.82.

Consider `CC(=O)Nc1ccc(C(C)=O)cc1`, for which the logP turned out to be 1.24.

In the case of `Cc1nnc(SCc2ccccc2)o1`, the logP stood at 1.74.

In turn, `CC(=O)n1ccnc1` displayed a logP of -0.34.

With `CN(Cc1ccccc1)N=Nc1[nH]cnc1C(N)=O`, the logP is 1.54.

`COc1cc(C(=O)C=CN2CC=CC2)cc(OC)c1OC` returned a logP of 1.77.

With `NC(=O)c1ncccc1O`, the logP was determined as 0.65.

For the compound `CC(=O)Nc1ccccc1C(C)C`, the logP was determined as 1.71.

`COC(=O)CCC(=O)N(C)c1ccc(S(=O)(=O)N(C)C)cc1`: the logP turned out to be 0.43.

On to `CN(C(=O)CCC#N)c1ccc(S(=O)(=O)N(C)C)cc1`, for which the logP was -0.17.

For `CCNCC(F)(F)F`, the logP is 0.74.

On to `CCC(=O)OCC(=O)C1(OC(=O)CC)C(C)CC2C3CC(F)C4=CC(=O)C(Cl)=CC4(C)C3(F)C(O)CC21C` (stereo unspecified), for which the logP came to 4.22.

The compound `CSc1ccc(C=NN=C(N)NN)cc1` had a logP of 1.35.

With `CS(=O)(=O)OCCCNCCCOS(C)(=O)=O`, the logP was -1.71.

In turn, `NCC(=O)NCC(=O)NCC(=O)NCC(=O)NCC(=O)O` came in with a logP of -3.31.

On to `Cc1csc(N=C(N)N)n1`, for which the logP stood at 1.24.

`CCC(CC)C1=Nc2ccccc2S(=O)(=O)N1`: the logP was found to be 1.88.

For the compound `COc1ccc(-c2ncc[nH]2)c(OC)c1`, the logP was determined as 1.72.

For the compound `O=S(=O)(NO)c1ccccc1`, the logP came out at 0.48.
